Experimental data reported in US11180483B2, “Substituted reverse pyrimidine Bmi-1 inhibitors” (PTC Therapeutics, Inc., priority 2012, dated 2021).

Tests used:
Bmi-1 = assay: Sandwich ELISA Assay (Bmi-1 ELISA) in HT-1080 cells; assay type: cell-based
Outline: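 HT-1080 cells exposed to compound in 0.5% final DMSO for 40-48 h at 37 °C, then lysed. Bmi-1 was quantified by sandwich ELISA: mouse monoclonal capture, rabbit anti-Bmi-1 detection, HRP anti-rabbit and TMB. Read at OD450 (OD570 reference) against a recombinant GST-Bmi-1 standard curve (0-8000 pg/mL).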

U87-MG tumor cells = assay: In Vivo Survival Assay, orthotopic model of glioblastoma; design: species or system nu/nu mice; settings: daily dosing begun 10 days after intracranial implantation, 40 day time period, versus vehicle and temozolomide (p<0.0001)
Method: A glioblastoma animal model was developed in which U87-MG tumor cells were injected intracranially into nu/nu mice and a tumor was allowed to become established over a 10 day period. The mice were dosed daily with vehicle, Compound 109 or temozolomide (a standard-of-care agent), as indicated. The comparative results for survival for each treatment group (n=10) from administration of vehicle, Compound 109 and temozolomide are shown in FIG. 4.
Cells were implanted intracranially into nude mice and dosing was begun 10 days later with either vehicle, Compound 109 or temozolomide.

[1] = tested on: CSC population in a BXD GBM model; assay: In Vitro Cancer Stem Cell Assay, BXD GBM model (number of neurospheres); assay type: cell-based; settings: 13 days, stated concentrations
Method: In Vitro Cancer Stem Cell Assay
The effect on inhibition of Bmi-1 function and reduction in the level of Bmi-1 protein by a compound of Formula (I) or a form thereof was tested in the in vitro pediatric Baylor Xenograft Derived (BXD) brain tumor model and in cells from primary patient cultures (PPC).
Cells were grown under conditions to measure either general cell growth (such as in fetal bovine serum (FBS) containing media in conventional tissue culture plates) or in conditions specifically for cancer stem cell (CSC) growth (low serum, nonadherent plates) to assess the effect of Bmi-1 inhibition and reduction in the level of Bmi-1 protein by a compound of Formula (I) on these populations. The cells were treated with a predetermined dose range of Compound 109 at fixed time points over a time period of from 24 hours to 13 days. The effect of inhibition on cell growth viability was quantitated using conventional 2D growth and neurosphere growth using a cell-counting kit (CCK) (supplied by Dojindo Molecular Technologies, Inc.).

## Nc1cc(Nc2ccc(OC(F)F)cc2)nc(-n2c(C(F)F)nc3ccc(F)cc32)n1 [Cpd 145, N-[4-(difluoromethoxy)phenyl]-2-[2-(difluoromethyl)-6-fluoro-1H-benzimidazol-1-yl]pyrimidine-4,6-diamine]
other
  melting point: 114 to 115 °C
Bmi-1
  EC50: 1 to 10 nM

## Cc1nc2ccc(F)cc2n1-c1nc(N)cc(Nc2ccc(OC(F)F)c(F)c2)n1 [Cpd 76, N-[4-(difluoromethoxy)-3-fluorophenyl]-2-(6-fluoro-2-methyl-1H-benzimidazol-1-yl)pyrimidine-4,6-diamine]
other
  melting point: 182 to 183 °C
Bmi-1
  EC50: 10 to 100 nM

## Cc1cccc(Nc2cc(N)nc(-n3c(C)nc4ccc(F)cc43)n2)c1 [Cpd 268, 2-(6-fluoro-2-methyl-1H-benzimidazol-1-yl)-N-(3-methylphenyl)pyrimidine-4,6-diamine]
other
  melting point: 203 to 205 °C
Bmi-1
  EC50: 100 to 3000 nM

## Cc1nc2ccc(F)cc2n1-c1nc(N)cc(Nc2ccc(N(C)C)cc2)n1 [Cpd 266, N-[4-(dimethylamino)phenyl]-2-(6-fluoro-2-methyl-1H-benzimidazol-1-yl)pyrimidine-4,6-diamine]
other
  melting point: 122 to 125 °C
Bmi-1
  EC50: 10 to 100 nM

## COc1ccc(Nc2cc(N)nc(-n3c(C)nc4ccccc43)n2)cc1F [Cpd 207, N-(3-fluoro-4-methoxyphenyl)-2-(2-methyl-1H-benzimidazol-1-yl)pyrimidine-4,6-diamine]
other
  melting point: 233 to 234 °C
Bmi-1
  EC50: 1 to 10 nM

## Cc1nc2ccc(F)cc2n1-c1nc(N)cc(Nc2ccc(Cl)c(F)c2)n1 [Cpd 267, N-(4-chloro-3-fluorophenyl)-2-(6-fluoro-2-methyl-1H-benzimidazol-1-yl)pyrimidine-4,6-diamine]
other
  melting point: 225 to 227 °C
Bmi-1
  EC50: 100 to 3000 nM

## COc1ccc(Nc2nc(-c3c(C)nc4ccc(F)cn34)nc(N)c2F)cc1 [Cpd 252, 5-fluoro-2-(6-fluoro-2-methylimidazo[1,2-a]pyridin-3-yl)-N-(4-methoxyphenyl)pyrimidine-4,6-diamine]
other
  melting point: 204 to 206 °C
Bmi-1
  EC50: 10 to 100 nM

## Cc1cn2c(-c3nc(N)c(F)c(Nc4ccc(C(F)(F)F)cc4)n3)c(C)nc2c(C)n1 [Cpd 174, 5-fluoro-N-[4-(trifluoromethyl)phenyl]-2-(2,6,8-trimethylimidazo[1,2-a]pyrazin-3-yl)pyrimidine-4,6-diamine]
other
  melting point: 166 to 168 °C
Bmi-1
  EC50: 100 to 3000 nM

## Cc1cn2c(-c3nc(N)c(F)c(Nc4ccc(OC(F)F)c(F)c4)n3)c(C)nc2c(C)n1 [Cpd 176, N-[4-(difluoromethoxy)-3-fluorophenyl]-5-fluoro-2-(2,6,8-trimethylimidazo[1,2-a]pyrazin-3-yl)pyrimidine-4,6-diamine]
other
  melting point: 140 to 141 °C
Bmi-1
  EC50: 100 to 3000 nM

## Nc1cc(Nc2ccc(C(F)(F)F)cc2)nc(-n2c(C(F)F)nc3ccccc32)n1 [Cpd 152, 2-[2-(difluoromethyl)-1H-benzimidazol-1-yl]-N-[4-(trifluoromethyl)phenyl]pyrimidine-4,6-diamine]
other
  melting point: 187 to 188 °C
Bmi-1
  EC50: 10 to 100 nM

## Nc1cc(Nc2ccc(C(F)(F)F)cc2)nc(-n2c(C3CC3)nc3ccccc32)n1 [Cpd 149, 2-(2-cyclopropyl-1H-benzimidazol-1-yl)-N-[4-(trifluoromethyl)phenyl]pyrimidine-4,6-diamine]
other
  melting point: 199 to 201 °C
Bmi-1
  EC50: 10 to 100 nM

## Nc1cc(Nc2ccc(C(F)(F)F)cc2)nc(-c2c(C(F)(F)F)nc3ccccn23)n1 [Cpd 66, 2-[2-(trifluoromethyl)imidazo[1,2-a]pyridin-3-yl]-N-[4-(trifluoromethyl)phenyl]pyrimidine-4,6-diamine]
other
  melting point: 203 to 205 °C
Bmi-1
  EC50: 10 to 100 nM

## Cc1ccc(Nc2nc(-c3c(C)nc4ccc(F)cn34)nc(N)c2F)cc1 [Cpd 253, 5-fluoro-2-(6-fluoro-2-methylimidazo[1,2-a]pyridin-3-yl)-N-(4-methylphenyl)pyrimidine-4,6-diamine]
other
  melting point: 210 to 212 °C
Bmi-1
  EC50: 1 to 10 nM

## CCc1nn2ccc(F)cc2c1-c1nc(N)c(F)c(Nc2ccc(OC(F)F)c(F)c2)n1 [Cpd 188, N-[4-(difluoromethoxy)-3-fluorophenyl]-2-(2-ethyl-5-fluoropyrazolo[1,5-a]pyridin-3-yl)-5-fluoropyrimidine-4,6-diamine]
other
  melting point: 150 to 152 °C
Bmi-1
  EC50: 100 to 3000 nM

## COCc1nc2ccccc2n1-c1nc(N)cc(Nc2ccc(C(F)(F)F)cc2)n1 [Cpd 150, 2-[2-(methoxymethyl)-1H-benzimidazol-1-yl]-N-[4-(trifluoromethyl]phenyl]pyrimidine-4,6-diamine]
other
  melting point: 212 to 213 °C
Bmi-1
  EC50: 10 to 100 nM

## Cc1nc2ccc(F)cc2n1-c1nc(N)cc(Nc2ccc3c(c2)OC(F)(F)O3)n1 [Cpd 269, N-(2,2-difluoro-1,3-benzodioxol-5-yl)-2-(6-fluoro-2-methyl-1H-benzimidazol-1-yl)pyrimidine-4,6-diamine]
other
  melting point: 212 to 215 °C
Bmi-1
  EC50: 100 to 3000 nM

## CCc1nn2ccc(F)cc2c1-c1nc(N)c(F)c(Nc2ccc(OC(F)F)cc2)n1 [Cpd 186, N-[4-(difluoromethoxy)phenyl]-2-(2-ethyl-5-fluoropyrazolo[1,5-a]pyridin-3-yl)-5-fluoropyrimidine-4,6-diamine]
other
  melting point: 103 to 105 °C
Bmi-1
  EC50: 100 to 3000 nM

## Cc1nn(C)c(C)c1-c1nc(N)cc(Nc2ccc(C(F)(F)F)cc2)n1 [Cpd 70, N-[4-(trifluoromethyl)phenyl]-2-(1,3,5-trimethyl-1H-pyrazol-4-yl)pyrimidine-4,6-diamine]
other
  melting point: 270 to 271 °C
Bmi-1
  EC50: 100 to 3000 nM

## CC(C)c1nc2ccccc2n1-c1nc(N)cc(Nc2ccc(C(F)(F)F)cc2)n1 [Cpd 151, 2-[2-(propan-2-yl)-1H-benzimidazol-1-yl]-N-[4-(trifluoromethyl]phenyl]pyrimidine-4,6-diamine]
other
  melting point: 216 to 218 °C
Bmi-1
  EC50: 10 to 100 nM

## Cc1nc2ccc(F)cc2n1-c1nc(N)c(F)c(Nc2ccc(C(F)(F)F)cc2)n1 [Cpd 109, 5-fluoro-2-(6-fluoro-2-methyl-1H-benzimidazol-1-yl)-N-[4-(trifluoromethyl)phenyl]pyrimidine-4,6-diamine]
Bmi-1
  EC50: 10 to 100 nM
U87-MG tumor cells
  survival of tumor bearing mice, FIG. 4: extended survival
[1]
  CSC population (as measured by number of neurospheres), FIG. 1: dose dependently reduced
  CSC population (as measured by number of neurospheres), FIG. 2: universally reduced

## Cc1nc2ccc(F)cc2n1-c1nc(N)cc(Nc2ccc(OC(F)F)cc2)n1 [Cpd 72, N-[4-(difluoromethoxy)phenyl]-2-(6-fluoro-2-methyl-1H-benzimidazol-1-yl)pyrimidine-4,6-diamine]
other
  melting point: 168 to 170 °C
Bmi-1
  EC50: 10 to 100 nM

## Cc1nc2ccc(F)cn2c1-c1nc(N)cc(Nc2ccc(OC(F)F)cc2)n1 [Cpd 69, N-[4-(difluoromethoxy)phenyl]-2-(6-fluoro-2-methylimidazo[1,2-a]pyridin-3-yl)pyrimidine-4,6-diamine]
other
  melting point: 136 to 138 °C
Bmi-1
  EC50: 10 to 100 nM

## Nc1cc(Nc2ccc(OC(F)F)c(F)c2)nc(-n2c(C3CC3)nc3ccc(F)cc32)n1 [Cpd 78, 2-(2-cyclopropyl-6-fluoro-1H-benzimidazol-1-yl)-N-[4-(difluoromethoxy)-3-fluorophenyl]pyrimidine-4,6-diamine]
other
  melting point: 186 to 188 °C
Bmi-1
  EC50: 10 to 100 nM

## CCc1nc2ccccc2n1-c1nc(N)cc(Nc2ccc(C(F)(F)F)cc2)n1 [Cpd 153, 2-(2-ethyl-1H-benzimidazol-1-yl)-N-[4-(trifluoromethyl]phenyl]pyrimidine-4,6-diamine]
other
  melting point: 183 to 185 °C
Bmi-1
  EC50: 10 to 100 nM

## COc1ccc(Nc2cc(N)nc(-n3c(C)nc4ccccc43)n2)cn1 [Cpd 208, N-(6-methoxypyridin-3-yl)-2-(2-methyl-1H-benzimidazol-1-yl)pyrimidine-4,6-diamine]
other
  melting point: 118 to 119 °C
Bmi-1
  EC50: 1 to 10 nM

## CCc1nn2ccc(F)cc2c1-c1nc(N)c(F)c(Nc2ccc(C(F)(F)F)cc2)n1 [Cpd 187, 2-(2-ethyl-5-fluoropyrazolo[1,5-a]pyridin-3-yl)-5-fluoro-N-[4-(trifluoromethyl)phenyl]pyrimidine-4,6-diamine]
other
  melting point: 164 to 166 °C
Bmi-1
  EC50: 100 to 3000 nM

## CCc1nc2ccc(F)cc2n1-c1nc(N)cc(Nc2ccc(C(F)(F)F)cc2)n1 [Cpd 81, 2-(2-ethyl-6-fluoro-1H-benzimidazol-1-yl)-N-[4-(trifluoromethyl)phenyl]pyrimidine-4,6-diamine]
other
  melting point: 201 to 203 °C
Bmi-1
  EC50: 10 to 100 nM

## Nc1cc(Nc2ccc(OC(F)F)c(F)c2)nc(-c2c(C3CC3)nc3ccc(F)cn23)n1 [Cpd 75, 2-(2-cyclopropyl-6-fluoroimidazo[1,2-a]pyridin-3-yl)-N-[4-(difluoromethoxy)-3-fluorophenyl]pyrimidine-4,6-diamine]
other
  melting point: 198 to 200 °C
Bmi-1
  EC50: 100 to 3000 nM
